The CheMixHub viscosity set

Experiment: xn = mol fraction of the nth substance listed

COC(C)=O + CN1CCCC1=O
viscosity [mPa·s], 101 kPa
Details | x2 = 0.0845 | x2 = 0.172 | x2 = 0.2626 | x2 = 0.3565 | x2 = 0.4539 | x2 = 0.5549 | x2 = 0.6598 | x2 = 0.7688 | x2 = 0.8821
303.15 K | 0.52 | 0.671 | 0.818 | 0.958 | 1.096 | 1.22 | 1.326 | 1.424 | 1.502
308.15 K | 0.488 | 0.619 | 0.749 | 0.873 | 0.991 | 1.102 | 1.195 | 1.284 | 1.358
313.15 K | 0.445 | 0.571 | 0.693 | 0.811 | 0.923 | 1.028 | 1.118 | 1.202 | 1.271
318.15 K | 0.412 | 0.526 | 0.638 | 0.743 | 0.846 | 0.939 | 1.022 | 1.098 | 1.163

COCCOC + Clc1ccccc1
298.15 K, 101 kPa
Details | viscosity [mPa·s]
x1 = 0.1219 | 0.721
x1 = 0.2379 | 0.685
x1 = 0.3487 | 0.649
x1 = 0.4543 | 0.611
x1 = 0.5554 | 0.573
x1 = 0.652 | 0.537
x1 = 0.7445 | 0.503
x1 = 0.8332 | 0.47
x1 = 0.9183 | 0.439

OC[C@H](O)C(O)[C@@H](O)CO + OC[C@@H](O)[C@@H](O)CO
101 kPa, x1 = 0.36
Details | viscosity [mPa·s]
293.2 K | 1329000
298.2 K | 611700
303.2 K | 294200
308.1 K | 154700
313.2 K | 79520
318.2 K | 42740
323 K | 23480

CCC(C)=O + CC(C)=O
viscosity [mPa·s], 101 kPa
Details | x1 = 0.2 | x1 = 0.4 | x1 = 0.6 | x1 = 0.8
293.15 K | 0.334 | 0.35 | 0.365 | 0.381
313.15 K | 0.278 | 0.29 | 0.302 | 0.314

c1ccc2ncccc2c1 + OCC(F)(F)F
viscosity [mPa·s], 101.33 kPa
Details | 298.15 K | 303.15 K | 308.15 K | 313.15 K | 318.15 K | 323.15 K
x1 = 0.16 | 2.34 | 2.05 | 1.84 | 1.62 | 1.46 | 1.32
x1 = 0.34 | 2.91 | 2.57 | 2.27 | 2.04 | 1.83 | 1.65
x1 = 0.54 | 3.14 | 2.79 | 2.46 | 2.21 | 2 | 1.82
x1 = 0.76 | 3.17 | 2.8 | 2.49 | 2.25 | 2.05 | 1.87

C1CCCCC1 + CC(C)O
303.15 K, 101.33 kPa
Details | viscosity [mPa·s]
x2 = 0.098 | 0.8169
x2 = 0.2003 | 0.8387
x2 = 0.3097 | 0.8861
x2 = 0.3997 | 0.9325
x2 = 0.4969 | 0.9831
x2 = 0.6009 | 1.063
x2 = 0.7025 | 1.174
x2 = 0.8004 | 1.313
